Measurements reported in ChEMBL document CHEMBL4507291 (2021).

How the values were obtained:
[1] = target: G protein-coupled receptor kinase 6 (Homo sapiens) (UniProt P43250); assay: GRK6 Kinase screen; conditions: Compound concentration 1.0 uM
[2] = target: Epidermal growth factor receptor (Homo sapiens) (UniProt P00533); assay: EGFR (ErbB1) Kinase screen; conditions: Compound concentration 1.0 uM
[3] = target: T1, Mitogen-activated protein kinase 12 (Homo sapiens) (UniProt P53778); assay: MAPK12 (p38 gamma) Kinase screen; conditions: Compound concentration 1.0 uM
T1 sequence (whole entry): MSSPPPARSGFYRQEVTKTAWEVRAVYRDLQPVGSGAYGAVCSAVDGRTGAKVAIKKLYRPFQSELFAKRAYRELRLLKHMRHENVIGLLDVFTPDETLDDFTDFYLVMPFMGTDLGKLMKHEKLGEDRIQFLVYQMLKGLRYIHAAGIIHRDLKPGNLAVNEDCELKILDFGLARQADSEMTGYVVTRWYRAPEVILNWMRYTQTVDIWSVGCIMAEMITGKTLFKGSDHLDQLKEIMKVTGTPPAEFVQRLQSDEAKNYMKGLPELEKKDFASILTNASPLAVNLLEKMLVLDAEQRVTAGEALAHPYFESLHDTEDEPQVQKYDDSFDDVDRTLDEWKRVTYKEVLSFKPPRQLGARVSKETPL

[4] = target: Protein-tyrosine kinase 2-beta (Homo sapiens) (UniProt Q14289); assay: PTK2B (FAK2) Kinase screen; conditions: Compound concentration 1.0 uM
[5] = target: Testis-specific serine/threonine-protein kinase 2 (Homo sapiens) (UniProt Q96PF2); assay: STK22B (TSSK2) Kinase screen; conditions: Compound concentration 1.0 uM
Sequence of Testis-specific serine/threonine-protein kinase 2 (Homo sapiens) (Q96PF2 whole entry): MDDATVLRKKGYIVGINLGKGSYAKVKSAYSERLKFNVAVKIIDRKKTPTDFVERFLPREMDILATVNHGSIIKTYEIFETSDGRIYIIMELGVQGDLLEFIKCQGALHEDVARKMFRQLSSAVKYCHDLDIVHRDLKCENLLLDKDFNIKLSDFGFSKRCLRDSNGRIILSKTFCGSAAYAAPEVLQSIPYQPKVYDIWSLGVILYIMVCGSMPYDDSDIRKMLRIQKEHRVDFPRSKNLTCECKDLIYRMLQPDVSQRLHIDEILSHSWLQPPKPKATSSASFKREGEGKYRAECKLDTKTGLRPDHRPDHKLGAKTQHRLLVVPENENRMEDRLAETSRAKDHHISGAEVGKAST

[6] = target: Platelet-activating factor receptor (Homo sapiens) (UniProt P25105); assay: Inhibition of Platelet Activating Factor (PAF) at 10 µM in the Eurofins-Panlabs radioligand binding assay (Eurofins_assay_265010); conditions: Compound concentration 10.0 uM
Sequence of Platelet-activating factor receptor (Homo sapiens) (P25105 whole entry): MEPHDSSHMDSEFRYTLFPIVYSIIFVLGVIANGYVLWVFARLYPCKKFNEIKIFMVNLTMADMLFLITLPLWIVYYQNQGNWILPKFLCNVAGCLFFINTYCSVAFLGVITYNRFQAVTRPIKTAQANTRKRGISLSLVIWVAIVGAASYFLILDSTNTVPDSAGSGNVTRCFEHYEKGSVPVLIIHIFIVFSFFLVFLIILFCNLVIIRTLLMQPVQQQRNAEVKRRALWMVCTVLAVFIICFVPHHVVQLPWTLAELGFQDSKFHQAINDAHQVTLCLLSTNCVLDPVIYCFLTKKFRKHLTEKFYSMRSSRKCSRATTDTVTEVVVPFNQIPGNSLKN

[7] = target: T2, Serine/threonine-protein kinase Sgk1 (Homo sapiens) (UniProt O00141); assay: SGK (SGK1) Kinase screen; conditions: Compound concentration 1.0 uM
T2 sequence (whole entry): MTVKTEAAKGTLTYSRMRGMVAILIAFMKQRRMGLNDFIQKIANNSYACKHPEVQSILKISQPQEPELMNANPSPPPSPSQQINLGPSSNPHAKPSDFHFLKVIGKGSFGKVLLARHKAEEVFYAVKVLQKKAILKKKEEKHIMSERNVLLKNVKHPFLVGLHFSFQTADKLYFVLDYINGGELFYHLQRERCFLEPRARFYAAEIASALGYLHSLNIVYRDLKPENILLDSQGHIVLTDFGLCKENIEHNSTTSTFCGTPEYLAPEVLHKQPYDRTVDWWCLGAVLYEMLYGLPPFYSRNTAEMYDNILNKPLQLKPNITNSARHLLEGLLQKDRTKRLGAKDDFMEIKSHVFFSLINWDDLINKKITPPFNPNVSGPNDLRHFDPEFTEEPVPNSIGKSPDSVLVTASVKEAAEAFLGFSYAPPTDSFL

[8] = target: Dual specificity mitogen-activated protein kinase kinase 1 (Homo sapiens) (UniProt Q02750); assay: MAP2K1 (MEK1) Kinase screen; conditions: Compound concentration 1.0 uM
[9] = target: Mitogen-activated protein kinase kinase kinase 11 (Homo sapiens) (UniProt Q16584); assay: MAP3K11 (MLK3) Kinase screen; conditions: Compound concentration 1.0 uM
[10] = target: High affinity choline transporter 1 (Homo sapiens) (UniProt Q9GZV3); assay: Transporter, Choline Eurofins-Panlabs radioligand binding assay; parameters: ligand concentration 0.75 nM; conditions: Rattus norvegicus; Compound concentration 10.0 uM
Sequence of High affinity choline transporter 1 (Homo sapiens) (Q9GZV3 whole entry): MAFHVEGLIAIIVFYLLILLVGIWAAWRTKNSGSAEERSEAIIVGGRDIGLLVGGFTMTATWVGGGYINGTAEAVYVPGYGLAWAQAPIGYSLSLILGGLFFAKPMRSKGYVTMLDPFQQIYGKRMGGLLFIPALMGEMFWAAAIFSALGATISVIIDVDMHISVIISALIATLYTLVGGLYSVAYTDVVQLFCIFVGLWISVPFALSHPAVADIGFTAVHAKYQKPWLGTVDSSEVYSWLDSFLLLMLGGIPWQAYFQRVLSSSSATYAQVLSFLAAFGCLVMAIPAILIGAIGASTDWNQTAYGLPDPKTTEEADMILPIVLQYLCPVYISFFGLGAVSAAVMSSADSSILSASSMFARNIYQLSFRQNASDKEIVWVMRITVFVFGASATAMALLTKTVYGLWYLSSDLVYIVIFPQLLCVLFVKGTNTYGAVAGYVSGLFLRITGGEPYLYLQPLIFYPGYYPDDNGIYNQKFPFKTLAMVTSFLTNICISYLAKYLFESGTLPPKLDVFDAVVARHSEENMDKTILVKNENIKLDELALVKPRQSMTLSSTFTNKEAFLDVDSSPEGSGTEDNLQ

[11] = target: Serine/threonine-protein kinase Nek4 (Homo sapiens) (UniProt P51957); assay: NEK4 Kinase screen; conditions: Compound concentration 1.0 uM
[12] = target: Adenosine receptor A2a (Homo sapiens) (UniProt P29274); conditions: Compound concentration 10.0 uM
[13] = system: Epidermal growth factor receptor (Homo sapiens), P00533 [L858R]; assay: EGFR (ErbB1) L858R Kinase screen; conditions: Compound concentration 1.0 uM
Sequence of Epidermal growth factor receptor (Homo sapiens), P00533 [L858R] (P00533 whole entry L858R): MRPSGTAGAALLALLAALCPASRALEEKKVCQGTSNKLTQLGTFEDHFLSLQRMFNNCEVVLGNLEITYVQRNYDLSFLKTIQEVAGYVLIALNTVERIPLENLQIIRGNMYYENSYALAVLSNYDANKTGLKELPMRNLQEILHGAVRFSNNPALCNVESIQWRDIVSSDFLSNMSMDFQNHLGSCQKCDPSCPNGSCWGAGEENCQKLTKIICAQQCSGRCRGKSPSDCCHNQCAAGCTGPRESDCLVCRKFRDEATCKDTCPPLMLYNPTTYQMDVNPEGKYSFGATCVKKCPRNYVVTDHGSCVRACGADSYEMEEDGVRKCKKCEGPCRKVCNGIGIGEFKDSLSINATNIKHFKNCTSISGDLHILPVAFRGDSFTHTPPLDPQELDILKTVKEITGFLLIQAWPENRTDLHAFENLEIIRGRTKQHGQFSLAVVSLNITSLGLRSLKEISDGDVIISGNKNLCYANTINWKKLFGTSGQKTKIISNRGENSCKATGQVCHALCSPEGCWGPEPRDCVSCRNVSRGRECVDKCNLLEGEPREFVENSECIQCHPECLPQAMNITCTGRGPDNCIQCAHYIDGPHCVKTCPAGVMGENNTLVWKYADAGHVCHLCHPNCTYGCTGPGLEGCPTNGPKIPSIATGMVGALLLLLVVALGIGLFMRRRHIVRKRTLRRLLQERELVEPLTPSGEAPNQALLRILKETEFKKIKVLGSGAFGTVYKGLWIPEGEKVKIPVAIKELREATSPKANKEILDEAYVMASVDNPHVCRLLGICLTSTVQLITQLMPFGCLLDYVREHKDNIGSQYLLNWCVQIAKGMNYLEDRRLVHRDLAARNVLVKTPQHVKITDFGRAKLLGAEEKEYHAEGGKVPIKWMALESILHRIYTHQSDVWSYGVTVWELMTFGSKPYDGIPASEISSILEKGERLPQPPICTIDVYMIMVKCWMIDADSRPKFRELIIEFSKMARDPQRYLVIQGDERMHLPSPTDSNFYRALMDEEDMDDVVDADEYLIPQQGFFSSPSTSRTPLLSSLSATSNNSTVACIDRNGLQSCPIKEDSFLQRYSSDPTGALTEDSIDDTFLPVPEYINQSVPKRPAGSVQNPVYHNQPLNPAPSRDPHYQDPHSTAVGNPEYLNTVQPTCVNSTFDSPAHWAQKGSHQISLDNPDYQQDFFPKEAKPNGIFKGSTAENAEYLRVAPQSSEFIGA

[14] = target: T3, Serine/threonine-protein kinase D3 (Homo sapiens) (UniProt O94806); assay: PRKCN (PKD3) Kinase screen; conditions: Compound concentration 1.0 uM
T3 sequence (whole entry): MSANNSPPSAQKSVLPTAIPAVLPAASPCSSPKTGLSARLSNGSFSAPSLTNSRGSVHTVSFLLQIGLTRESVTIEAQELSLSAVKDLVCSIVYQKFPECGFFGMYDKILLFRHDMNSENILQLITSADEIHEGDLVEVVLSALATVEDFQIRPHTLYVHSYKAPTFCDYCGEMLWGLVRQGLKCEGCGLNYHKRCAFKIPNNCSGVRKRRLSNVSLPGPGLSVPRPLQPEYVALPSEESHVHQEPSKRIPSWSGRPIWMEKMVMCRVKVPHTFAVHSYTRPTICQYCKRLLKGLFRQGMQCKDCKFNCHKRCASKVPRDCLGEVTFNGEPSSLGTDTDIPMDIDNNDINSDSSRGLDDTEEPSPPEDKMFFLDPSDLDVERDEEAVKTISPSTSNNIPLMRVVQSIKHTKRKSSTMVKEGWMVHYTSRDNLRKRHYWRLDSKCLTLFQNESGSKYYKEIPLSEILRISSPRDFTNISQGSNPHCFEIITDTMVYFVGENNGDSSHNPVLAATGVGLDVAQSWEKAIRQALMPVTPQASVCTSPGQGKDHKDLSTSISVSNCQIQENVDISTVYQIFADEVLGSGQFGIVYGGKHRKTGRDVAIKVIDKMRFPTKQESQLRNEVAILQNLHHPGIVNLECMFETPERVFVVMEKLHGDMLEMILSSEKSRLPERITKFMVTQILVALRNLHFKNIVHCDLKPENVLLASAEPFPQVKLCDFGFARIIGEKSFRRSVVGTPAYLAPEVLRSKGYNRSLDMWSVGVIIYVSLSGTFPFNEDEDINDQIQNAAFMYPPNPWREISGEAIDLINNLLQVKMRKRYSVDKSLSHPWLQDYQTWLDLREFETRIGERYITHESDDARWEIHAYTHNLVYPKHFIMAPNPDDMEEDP

[15] = target: Adenosine Transporter (Cavia porcellus) (UniProt H0V4R7+H0UUG1+H0V3Z5); assay: (§1) Inhibition of Transporter, Adenosine at compound concentration of 10.0 uM in the Eurofins-Panlabs radioligand binding assay (Eurofins_assay_202000); format: protein assay; parameters: ligand concentration 0.5 nM, non-specific ligand with concentration 5 uM Nitrobenzylthioinosine, incubation time 30 min, incubation temperature 25 C
Adenosine Transporter = Adenosine Transporter (Cavia porcellus, UniProt H0V4R7+H0UUG1+H0V3Z5); assay: as §1; format: protein assay; parameters: ligand concentration 0.5 nM, non-specific ligand with concentration 5 uM Nitrobenzylthioinosine, incubation time 30 min, incubation temperature 25 C
[16] = target: Sodium-dependent noradrenaline transporter (Homo sapiens, UniProt P23975); assay: Inhibition of Transporter, Norepinephrine (NET) at compound concentration of 10.0 uM in the Eurofins-Panlabs radioligand binding assay (Eurofins_assay_204410); parameters: ligand concentration 0.2 nM, non-specific ligand with concentration 10 uM Desipramine, incubation time 3 h, incubation temperature 4 C
Sequence of Sodium-dependent noradrenaline transporter (P23975 whole entry): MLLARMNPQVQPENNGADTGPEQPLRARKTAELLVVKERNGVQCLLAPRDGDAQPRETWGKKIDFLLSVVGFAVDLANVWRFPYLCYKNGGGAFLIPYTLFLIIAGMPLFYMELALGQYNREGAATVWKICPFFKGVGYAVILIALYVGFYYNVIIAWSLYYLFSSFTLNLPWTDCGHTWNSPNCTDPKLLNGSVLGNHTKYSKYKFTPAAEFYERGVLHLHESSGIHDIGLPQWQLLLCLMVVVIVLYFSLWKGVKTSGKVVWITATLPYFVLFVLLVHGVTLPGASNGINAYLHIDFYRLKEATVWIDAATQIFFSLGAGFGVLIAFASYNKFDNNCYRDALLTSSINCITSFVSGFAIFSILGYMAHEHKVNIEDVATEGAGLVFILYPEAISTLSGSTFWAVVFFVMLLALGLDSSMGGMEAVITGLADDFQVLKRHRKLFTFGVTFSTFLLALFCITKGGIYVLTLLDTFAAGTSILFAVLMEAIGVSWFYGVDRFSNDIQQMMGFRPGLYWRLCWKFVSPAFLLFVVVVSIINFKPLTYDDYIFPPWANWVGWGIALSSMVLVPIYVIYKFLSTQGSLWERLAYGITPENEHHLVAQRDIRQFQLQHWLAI

Sequence of Epidermal growth factor receptor (Homo sapiens) (P00533 whole entry): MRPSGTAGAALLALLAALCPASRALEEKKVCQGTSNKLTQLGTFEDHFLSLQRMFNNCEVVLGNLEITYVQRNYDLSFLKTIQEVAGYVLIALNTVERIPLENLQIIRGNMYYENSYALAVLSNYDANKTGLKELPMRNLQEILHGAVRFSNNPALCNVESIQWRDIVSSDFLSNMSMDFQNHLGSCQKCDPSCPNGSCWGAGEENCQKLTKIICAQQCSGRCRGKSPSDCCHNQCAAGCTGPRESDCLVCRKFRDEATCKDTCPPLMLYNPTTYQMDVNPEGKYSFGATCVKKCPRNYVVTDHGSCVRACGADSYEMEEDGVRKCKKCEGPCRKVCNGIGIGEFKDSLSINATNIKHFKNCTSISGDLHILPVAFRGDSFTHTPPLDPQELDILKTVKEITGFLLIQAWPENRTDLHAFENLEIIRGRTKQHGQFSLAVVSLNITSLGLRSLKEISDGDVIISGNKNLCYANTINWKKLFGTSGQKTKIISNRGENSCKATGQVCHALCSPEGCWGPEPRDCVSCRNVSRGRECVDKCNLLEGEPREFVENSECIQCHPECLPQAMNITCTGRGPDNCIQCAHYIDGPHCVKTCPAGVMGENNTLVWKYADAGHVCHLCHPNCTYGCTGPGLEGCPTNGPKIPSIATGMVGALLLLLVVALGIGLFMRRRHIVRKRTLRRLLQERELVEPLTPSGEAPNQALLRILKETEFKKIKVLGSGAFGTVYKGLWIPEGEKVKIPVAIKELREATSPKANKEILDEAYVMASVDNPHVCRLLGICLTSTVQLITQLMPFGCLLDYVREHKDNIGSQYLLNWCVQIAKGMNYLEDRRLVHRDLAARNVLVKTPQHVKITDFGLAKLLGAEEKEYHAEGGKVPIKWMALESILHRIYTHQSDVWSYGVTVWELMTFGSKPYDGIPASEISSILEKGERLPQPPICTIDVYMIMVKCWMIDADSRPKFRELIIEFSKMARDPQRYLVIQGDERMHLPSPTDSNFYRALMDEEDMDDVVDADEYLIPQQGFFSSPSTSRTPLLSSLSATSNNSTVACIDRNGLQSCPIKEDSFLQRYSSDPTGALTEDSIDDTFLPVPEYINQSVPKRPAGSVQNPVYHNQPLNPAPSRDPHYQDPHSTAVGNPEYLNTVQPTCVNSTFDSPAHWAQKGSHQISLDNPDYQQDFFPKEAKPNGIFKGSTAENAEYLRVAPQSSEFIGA
Sequence of G protein-coupled receptor kinase 6 (Homo sapiens) (P43250 whole entry, looked up): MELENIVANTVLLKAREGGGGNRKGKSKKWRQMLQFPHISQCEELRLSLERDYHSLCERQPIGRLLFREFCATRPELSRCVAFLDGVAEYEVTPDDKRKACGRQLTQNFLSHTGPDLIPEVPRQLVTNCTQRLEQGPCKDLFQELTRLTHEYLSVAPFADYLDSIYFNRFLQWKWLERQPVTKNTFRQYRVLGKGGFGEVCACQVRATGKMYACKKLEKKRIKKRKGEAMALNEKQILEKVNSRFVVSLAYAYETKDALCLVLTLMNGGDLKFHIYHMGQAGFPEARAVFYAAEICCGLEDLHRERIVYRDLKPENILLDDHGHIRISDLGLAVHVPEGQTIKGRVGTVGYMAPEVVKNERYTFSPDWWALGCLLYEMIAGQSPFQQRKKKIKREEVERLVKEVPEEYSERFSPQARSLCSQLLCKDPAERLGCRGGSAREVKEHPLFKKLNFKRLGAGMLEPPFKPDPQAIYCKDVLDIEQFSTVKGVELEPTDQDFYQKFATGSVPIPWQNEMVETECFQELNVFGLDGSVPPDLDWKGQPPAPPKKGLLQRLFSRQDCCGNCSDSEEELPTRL

**Q.** How did the inhibition [1] turn out when `C[C@@H]1CN(c2cc(-c3n[nH]c4ccc(OC5(C)CC5)cc34)ncn2)C[C@H](C)O1` [MLi-2] was run?
**A.** 6.63%

**Q.** What about the inhibition [2] of the same compound?
**A.** -0.77%

**Q.** What about the inhibition [3] of the same compound?
**A.** 1%

**Q.** And the inhibition [4]?
**A.** 2.48%

**Q.** And the inhibition [5]?
**A.** 10.2%

**Q.** What about the inhibition [6] of the same compound?
**A.** 33%

**Q.** What about the inhibition [7] of the same compound?
**A.** -1.63%

**Q.** And the inhibition [8]?
**A.** 8.27%

**Q.** What about the inhibition [9] of the same compound?
**A.** -3.69%

**Q.** What about the inhibition [10] of the same compound?
**A.** 18%

**Q.** What about the inhibition [11] of the same compound?
**A.** 6.39%

**Q.** And the inhibition [12]?
**A.** 1%

**Q.** What about the inhibition [13] of the same compound?
**A.** -0.455%

**Q.** And the inhibition [14]?
**A.** 21.1%

**Q.** What about the inhibition ([15]; Compound concentration 0.01 uM) of the same compound?
**A.** 2%

**Q.** And the inhibition ([15]; Compound concentration 0.1 uM)?
**A.** -1%

**Q.** And the inhibition ([15]; Compound concentration 1.0 uM)?
**A.** 11%

**Q.** And the inhibition ([15]; Compound concentration 10.0 uM)?
**A.** 51%

**Q.** And the IC50 (Adenosine Transporter)?
**A.** 9.7 µM

**Q.** And the Ki (Adenosine Transporter)?
**A.** 3.32 µM

**Q.** And the Ki [16]?
**A.** 3.79 µM
